Columns and labels:
Settings in all cases: 72 h
HepG2 [1] = assay: drug sensitivity score (DSS) for viability; higher = more toxic; extreme values may be limits of the assay
Caco-2 [2] = assay: as above
U2OS [3] = assay: as above
Vero E6 [4] = assay: as above
Calu-3 [5] = assay: as above
HepG2 [6] = assay: cell viability relative to DMSO; higher = less toxic
Caco-2 [7] = assay: as above
U2OS [8] = assay: as above
Vero E6 [9] = assay: as above
Calu-3 [10] = assay: as above
HepG2 [11] = assay: relative viability EC50 (midpoint between 100% and the lowest measured viability); higher = less toxic
Caco-2 [12] = assay: as above
U2OS [13] = assay: as above
Vero E6 [14] = assay: as above
Calu-3 [15] = assay: as above

Compound	drug sensitivity score (HepG2 [1])	drug sensitivity score (Caco-2 [2])	drug sensitivity score (U2OS [3])	drug sensitivity score (Vero E6 [4])	drug sensitivity score (Calu-3 [5])	cell viability (HepG2 [6]; 1 nM) [%]	cell viability (HepG2 [6]; 10 nM) [%]	cell viability (HepG2 [6]; 100 nM) [%]	cell viability (HepG2 [6]; 1000 nM) [%]	cell viability (HepG2 [6]; 10000 nM) [%]	cell viability (Caco-2 [7]; 1 nM) [%]	cell viability (Caco-2 [7]; 10 nM) [%]	cell viability (Caco-2 [7]; 100 nM) [%]	cell viability (Caco-2 [7]; 1000 nM) [%]	cell viability (Caco-2 [7]; 10000 nM) [%]	cell viability (U2OS [8]; 1 nM) [%]	cell viability (U2OS [8]; 10 nM) [%]	cell viability (U2OS [8]; 100 nM) [%]	cell viability (U2OS [8]; 1000 nM) [%]	cell viability (U2OS [8]; 10000 nM) [%]	cell viability (Vero E6 [9]; 1 nM) [%]	cell viability (Vero E6 [9]; 10 nM) [%]	cell viability (Vero E6 [9]; 100 nM) [%]	cell viability (Vero E6 [9]; 1000 nM) [%]	cell viability (Vero E6 [9]; 10000 nM) [%]	cell viability (Calu-3 [10]; 1 nM) [%]	cell viability (Calu-3 [10]; 10 nM) [%]	cell viability (Calu-3 [10]; 100 nM) [%]	cell viability (Calu-3 [10]; 1000 nM) [%]	cell viability (Calu-3 [10]; 10000 nM) [%]	relative viability EC50 (HepG2 [11]) [µM]	relative viability EC50 (Caco-2 [12]) [µM]	relative viability EC50 (U2OS [13]) [µM]	relative viability EC50 (Vero E6 [14]) [µM]	relative viability EC50 (Calu-3 [15]) [µM]
CCN(CC)CCOCCOC(=O)C(CC)(CC)c1ccccc1 [oxelaidin]	0.3	0	0	0	0	104	103	104	95.6	87.1	106	85.5	95.9	107	97.3	96.9	92.6	94.3	107	101	94.2	95.9	102	99.9	104	99	95.8	94.8	94.5	99.7	> 10	> 10	> 10	> 10	> 10
CCn1cc(C(=O)O)c(=O)c2cc(F)c(N3CCN(C)CC3)cc21 [pefloxacin]	0	0	0	0	0	88.6	100	106	99.3	94.6	94.5	80.2	104	89.5	94.1	104	94.8	98.4	96	96	96.8	101	94.2	95.3	90.4	100	97.8	97.2	83.3	99	> 10	> 10	> 10	> 10	> 10
O=c1[nH]c2ccccc2c(=O)n1CCCN1CCN(c2ccccc2)CC1 [pelanserin]	0	0	0	0	0	91.1	93	95.7	107	93.6	101	102	94	103	91.7	97	104	95.6	95.2	94.8	104	105	102	105	95.5	94.5	96.2	103	102	116	> 10	> 10	> 10	> 10	> 10

— the supplement of paper PMC13380429
